# In patent US20070219159A1, “CYCLODEXTRIN COMPOSITIONS AND METHODS OF TREATING VIRAL INFECTIONS” (priority 2002, published 2007):
# Like-named read-outs stand apart in the source and are kept apart here.
# Tests used:
# HCV = test: In vitro anti-HCV assay in HCV RNA-replicating cell line AVA5; format: cell-based; conditions: HCV
# Experimental: (§1) The antiviral activity of test compounds were assayed in the stably HCV RNA-replicating cell line. AVA5, derived by transfection of the human hepatoblastoma cell line, Huh^7 (Blight et al., 2000). Experimental drugs were added to dividing cultures once daily for three days. Media was changed with each addition of compound. Cultures generally started the assays at 50% confluence and reached confluence during the last day of treatment. HCV RNA and cellular β-actin RNA levels were assessed 24 hours after the last dose of compound using dot blot hybridization. Assays were conducted using a single dose of test compound (in triplicate cultures).
# (§2) Both HCV and β-actin RNA levels in the treated cultures were expressed as a percentage of the mean levels of RNA detected in untreated cultures. β-actin RNA levels were used both as a measure of toxicity, and to normalize the amount of cellular RNA in each sample. A level of 30% or less HCV RNA (relative to control cultures) was considered to be a positive antiviral effect, and a level of 50% or less β-actin RNA (relative to control cultures) is considered to be a cytotoxic effect.
# (§3) Dividing cultures of AVAB cells were treated once daily for three days (media was changed with each addition of compound) with 4 concentrations of test compounds (3 cultures per concentration). A total of 6 untreated control cultures, and triplicate cultures treated with 10, 3, and 1 IU/ml α-interferon (active antiviral with no cytotoxicity), and 100, 10, and 1 μM ribavir ([…]) served as controls. HCV RNA and cellular β-actin FNA levels were assessed 24 hours after the last dose of compound using dot blot hybridization. β-actin RNA levels were used to normalize the amount of cellular RNA in each sample.
# (§4) Toxicity analyses were performed on separate plates from those used for the antiviral assays. Cells for the toxicity analyses were cultured and treated with test compounds with the same schedule and under identical culture conditions used for the antiviral evaluations. Each compound was tested at 4 concentrations, each in triplicate cultures. Uptake of neutral red dye was used to determine the relative level of toxicity 24 hours following the last treatment. The absorbance of internalized dye at […] (A510) was used for the quantitative analysis. Values in test cultures were compared to 9 cultures of untreated cells maintained on the same plate as the test cultures.
# (§5) Assays similar to those described above were conducted.
# HSV-1 = conditions: in general 1000-fold less drug than Examples 1-6 and 10
# HSV-2 strain MS = test: CPE reduction assay in Vero cells, HSV-2; format: cell-based; conditions: HSV-2; final concentrations up to 8 mg/ml
# HSV-2 = conditions: in general 1000-fold less drug than Examples 1-6 and 10
# HSV-1 strain KOS1.1 = test: CPE reduction assay in Vero cells, HSV-1; format: cell-based; conditions: HSV-1; final concentrations up to 8 mg/ml
# West Nile = test: In vitro antiviral screening (Table 1), West Nile
# [1] = HSV-infected cells; cited from earlier work
# [2] = In vitro anti-HCV assay in HCV RNA-replicating cell line AVA5; format: cell-based; conditions: human, AVA5 cells (HCV RNA-replicating Huh7 line); toxicity control, no antiviral activity; read-out: approximate CC90
# Experimental: as §1, §2, §3, §4, §5
# [3] = system: vaccinia Western Reserve strain (WR); format: cell-based
# Vero cells = conditions: 48 hours exposure; extrapolated from cell killing graph (FIG. 5)
compound,measurement,setting,value
"OC[C@H]1O[C@@H]2O[C@H]3[C@H](O)[C@@H](O)[C@@H](O[C@H]4[C@H](O)[C@@H](O)[C@@H](O[C@H]5[C@H](O)[C@@H](O)[C@@H](O[C@H]6[C@H](O)[C@@H](O)[C@@H](O[C@H]7[C@H](O)[C@@H](O)[C@@H](O[C@H]1[C@H](O)[C@H]2O)O[C@@H]7CO)O[C@@H]6CO)O[C@@H]5CO)O[C@@H]4CO)O[C@@H]3CO [ACD, α-cyclodextrin]",S.I. for HCV,HCV,0.72
same,SI = CC50/EC50,Flu A,0
same,SI = CC50/EC50,HSV-1,0
same,SI = CC50/EC50,Yellow fever,0
same,SI = CC50/EC50,Rhino,0
same,SI = CC50/EC50,PIV,0
same,SI = CC50/EC50,EBV,>1.5
same,SI = CC50/EC50,RSV,0
same,SI = CC50/EC50,Punta Toro,0
same,SI = CC50/EC50,Ad,0
same,SI = CC50/EC50,Measles,0
same,SI = CC50/EC50,HCMV,0
same,SI = CC50/EC50,MCMV,0
same,SI = CC50/EC50,HHV-7,0
same,antiviral activity in infected Vero cells,HSV-2 strain MS,no significant antiviral activity
same,SI = CC50/EC50,HSV-2,0
same,SI = CC50/EC50,Vaccinia,0
same,SI = CC50/EC50,Cowpox,0
same,SI = CC50/EC50,Flu B,0
same,antiviral activity in infected Vero cells,HSV-1 strain KOS1.1,no significant antiviral activity
same,SI = CC50/EC50,HHV-6,0
same,SI = CC50/EC50,HRV,0
same,SI = CC50/EC50,Pichinde,0
same,SI = CC50/EC50,Resp syncytial,0
same,SI = CC50/EC50,MV,0
same,SI = CC50/EC50,West Nile,0
same,SI = CC50/EC50,VZV,0
same,SI = CC50/EC50,VEE,0
penciclovir triphosphate,intracellular half life,[1],12 h
"NC(=O)c1ncn([C@@H]2O[C@H](CO)[C@@H](O)[C@H]2O)n1 [ribavirin, reference compound]",CC90 at 3 days,[2],~100 µM
methyl-β-cyclodextrin [MBCD],S.I. for HCV,HCV,1.69
same,SI = CC50/EC50,Flu A; Flu A,0
same,SI = CC50/EC50,Punta Toro; Punta Toro,0
same,anti-vaccinia virus activity (cytopathic effect versus untreated wells),"[3]; MBCD 4 to 4.5 mg/ml, β-CD 7.2 mg/ml, pre- and post-infection, 48 hours",much fewer and smaller areas of cytopathic effect
same,concentration at which anti-vaccinia virus activity was observed,[3]; flat portion of the cell killing curve,< 4.5 mg/mL
same,CC50 at 48 hours for Vero cells,Vero cells,approximately 5.5 mg/ml
same,SI = CC50/EC50,Pichinde,0
same,SI = CC50/EC50,MV,0
same,SI = CC50/EC50,West Nile,0 (?)
same,SI = CC50/EC50,VEE,0
